Values after ≈ are worked out from the molar mass of the structure shown.
Legend:
[1] = tested on: Plasmodium falciparum; assay: Antiplasmodial activity against Plasmodium falciparum CSL-2 harboring DHFR NRNL haplotype C59R/S108N/I164L triple mutant; type: functional, organism-based
[2] = tested on: Plasmodium falciparum; assay: Antiplasmodial activity against Plasmodium falciparum V1/S harboring DHFR IRNL haplotype N51I/C59R/S108N/I164L quadruple mutant; type: functional, organism-based
[3] = tested on: Vero; assay: Cytotoxicity against African green monkey Vero cells; type: cell-based; details: chlorocebus sabaeus
[4] = target: T1, Dihydrofolate reductase (Homo sapiens, UniProt P00374)
T1 sequence (P00374 whole entry): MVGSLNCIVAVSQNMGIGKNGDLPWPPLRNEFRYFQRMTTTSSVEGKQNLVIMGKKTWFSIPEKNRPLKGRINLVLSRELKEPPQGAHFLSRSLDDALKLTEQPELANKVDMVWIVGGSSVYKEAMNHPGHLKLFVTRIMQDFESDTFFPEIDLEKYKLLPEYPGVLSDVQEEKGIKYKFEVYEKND

[5] = tested on: Plasmodium falciparum; assay: microbe, parasite or virus in culture; details: TM4/8.2
[6] = tested on: Plasmodium falciparum; assay: microbe, parasite or virus in culture; details: K1CB1
[7] = tested on: Plasmodium falciparum; assay: microbe, parasite or virus in culture; details: W2
[8] = Solubility of the compound; type: physicochemical
[9] = Inhibition of Plasmodium falciparum TM4/8.2 wild type DHFR NCSI haplotype

Row | solubility [8] | SMILES | IC50 [1] | IC50 [2] | Activity [3] | Ki [4] | IC50 [5] | IC50 [6] | IC50 [7] | Ki [9]
1 | – | CCc1nc(N)nc(N)c1-c1cccc(Cl)c1 | 2530 nM | 9100 nM | 7 µM | 1.6 nM | 420 nM | 1310 nM | 3940 nM | –
2 | – | Cc1nc(N)nc(N)c1OCCCOc1cc(Cl)c(Cl)cc1Cl | – | 3500 nM | – | – | 230 nM | – | – | –
3 | 1 µM (≈ 0.425 µg/mL) | CCc1nc(N)nc(N)c1OCCCOc1ccc(-c2c(N)nc(N)nc2CC)cc1 | – | – | – | – | – | – | – | –
4 | – | CCc1nc(N)nc(N)c1-c1ccc(Cl)cc1 [PYRIMETHAMINE] | 42000 nM | > 100000 nM | – | – | – | – | – | 0.6 nM
